# Entries after “also recorded” stand apart in the source; their conditions may differ.
# System: preferentially upregulated genes in LV, SP, LN
# Assay: Z-score-based differential gene expression analysis (adjuvant group- or adjuvant-associated genes, 40 module mapping, TargetMine annotation)
# Assay type: in vivo, C57BL/6 mice
# Details: for Rnf213 1455500_at (Group G1, Modules 20) / Rsad2 1436058_at (Group G1, Modules 20) / Shisa5 1423986_a_at (Group G1, Modules 20) / Shisa5 1437503_a_at (Group G1, Modules 20) / Stat1 1450033_a_at (Group G1, Modules 20) / Stat1 1450034_at (Group G1, Modules 20) / Tdrd7 1426716_at (Group G1, Modules 20) / Tor1aip2 1418115_s_at (Group G1, Modules 20) / Tor1aip2 1418116_at (Group G1, Modules 20) / Tor1aip2 1435526_at (Group G1, Modules 20) / Trim12a 1437432_a_at (Group G1, Modules 20) / Uba7 1426970_a_at (Group G1, Modules 20) / Adar 1425405_a_at (Group G1, Modules 20) / Adar 1434268_at (Group G1, Modules 20) / Ddx58 1436562_at (Group G1, Modules 20) / Ddx58 1456890_at (Group G1, Modules 20) / Eif2ak2 1422005_at (Group G1, Modules 20) / G3bp2 1421323_a_at (Group G1, Modules 20) / Gm9706///Isg15 1431591_s_at (Group G1, Modules 20) / H2-T10///H2-T22///H2-T9 1449875_s_at (Group G1, Modules 20) / Ifih1 1426276_at (Group G1, Modules 20) / Ifit1 1450783_at (Group G1, Modules 20) / Ifit3 1449025_at (Group G1, Modules 20) / Irf7 1417244_a_at (Group G1, Modules 20) / Irgm1 1418825_at (Group G1, Modules 20) / Mndal 1426906_at (Group G1, Modules 20) / Pml 1448757_at (Group G1, Modules 20) / Pml 1456103_at (Group G1, Modules 20): ID, LV
# Outline: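 Gene groups for each organ were built from combined z-score cutoffs across adjuvants, ranging from z>1 to z>3. Scores came from fold changes standardized per gene over the whole organ data set, with the three replicate z-scores added per adjuvant; sums above 3 marked preferential expression.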
smiles,measurement,setting,value
"Nc1nc2c(ncn2[C@@H]2O[C@@H]3COP(=O)(O)O[C@H]4[C@@H](O)[C@H](n5cnc6c(=O)[nH]c(N)nc65)O[C@@H]4COP(=O)(O)O[C@H]3[C@H]2O)c(=O)[nH]1 [cdiGMP, Cyclic diguanylate monophosphate]","Rnf213 1455500_at (Group G1, Modules 20)",sample x1,2.07
same,"Rsad2 1436058_at (Group G1, Modules 20)",sample x1,2.39
same,"Shisa5 1423986_a_at (Group G1, Modules 20)",sample x1,0.72
same,"Shisa5 1437503_a_at (Group G1, Modules 20)",sample x1,1.05
same,"Stat1 1450033_a_at (Group G1, Modules 20)",sample x1,1.49
same,"Stat1 1450034_at (Group G1, Modules 20)",sample x1,0.88
same,"Tdrd7 1426716_at (Group G1, Modules 20)",sample x1,1.47
same,"Tor1aip2 1418115_s_at (Group G1, Modules 20)",sample x1,1.81
same,"Tor1aip2 1418116_at (Group G1, Modules 20)",sample x1,1.58
same,"Tor1aip2 1435526_at (Group G1, Modules 20)",sample x1,0.94
same,"Trim12a 1437432_a_at (Group G1, Modules 20)",sample x1,0.73
same,"Uba7 1426970_a_at (Group G1, Modules 20)",sample x1,0.53
same,"Adar 1425405_a_at (Group G1, Modules 20)",sample x2,1.67
same,"Adar 1434268_at (Group G1, Modules 20)",sample x2,1.83
same,"Ddx58 1436562_at (Group G1, Modules 20)",sample x2,0.88
same,"Ddx58 1456890_at (Group G1, Modules 20)",sample x2,1.45
same,"Eif2ak2 1422005_at (Group G1, Modules 20)",sample x2,1.38
same,"G3bp2 1421323_a_at (Group G1, Modules 20)",sample x2,1.5
same,"Gm9706///Isg15 1431591_s_at (Group G1, Modules 20)",sample x2,0.94
same,"H2-T10///H2-T22///H2-T9 1449875_s_at (Group G1, Modules 20)",sample x2,1.04
same,"Ifih1 1426276_at (Group G1, Modules 20)",sample x2,1.09
same,"Ifit1 1450783_at (Group G1, Modules 20)",sample x2,2.28
same,"Ifit3 1449025_at (Group G1, Modules 20)",sample x2,1.75
same,"Irf7 1417244_a_at (Group G1, Modules 20)",sample x2,1.21
same,"Irgm1 1418825_at (Group G1, Modules 20)",sample x2,1.29
same,"Mndal 1426906_at (Group G1, Modules 20)",sample x2,2.45
same,"Pml 1448757_at (Group G1, Modules 20)",sample x2,1.57
same,"Pml 1456103_at (Group G1, Modules 20)",sample x2,1.3
same,"Rnf213 1455500_at (Group G1, Modules 20)",sample x2,2.08
same,"Rsad2 1436058_at (Group G1, Modules 20)",sample x2,2.41
same,"Shisa5 1423986_a_at (Group G1, Modules 20)",sample x2,1.07
same,"Shisa5 1437503_a_at (Group G1, Modules 20)",sample x2,1.12
same,"Stat1 1450033_a_at (Group G1, Modules 20)",sample x2,1.44
same,"Stat1 1450034_at (Group G1, Modules 20)",sample x2,1.02
same,"Tdrd7 1426716_at (Group G1, Modules 20)",sample x2,1.15
same,"Tor1aip2 1418115_s_at (Group G1, Modules 20)",sample x2,1.67
same,"Tor1aip2 1418116_at (Group G1, Modules 20)",sample x2,1.33
same,"Tor1aip2 1435526_at (Group G1, Modules 20)",sample x2,0.83
same,"Trim12a 1437432_a_at (Group G1, Modules 20)",sample x2,0.83
same,"Uba7 1426970_a_at (Group G1, Modules 20)",sample x2,1.46
same,"Adar 1425405_a_at (Group G1, Modules 20)",sample x3,1.66
same,"Adar 1434268_at (Group G1, Modules 20)",sample x3,2.95
same,"Ddx58 1436562_at (Group G1, Modules 20)",sample x3,1.49
same,"Ddx58 1456890_at (Group G1, Modules 20)",sample x3,2.07
same,"Eif2ak2 1422005_at (Group G1, Modules 20)",sample x3,1.93
same,"G3bp2 1421323_a_at (Group G1, Modules 20)",sample x3,2.34
same,"Gm9706///Isg15 1431591_s_at (Group G1, Modules 20)",sample x3,2.02
same,"H2-T10///H2-T22///H2-T9 1449875_s_at (Group G1, Modules 20)",sample x3,2.06
same,"Ifih1 1426276_at (Group G1, Modules 20)",sample x3,1.65
same,"Ifit1 1450783_at (Group G1, Modules 20)",sample x3,2.4
same,"Ifit3 1449025_at (Group G1, Modules 20)",sample x3,2.34
same,"Irf7 1417244_a_at (Group G1, Modules 20)",sample x3,1.92
same,"Irgm1 1418825_at (Group G1, Modules 20)",sample x3,1.81
same,"Mndal 1426906_at (Group G1, Modules 20)",sample x3,2.76
same,"Pml 1448757_at (Group G1, Modules 20)",sample x3,2.16
same,"Pml 1456103_at (Group G1, Modules 20)",sample x3,2.58
same,"Rnf213 1455500_at (Group G1, Modules 20)",sample x3,3.16
same,"Rsad2 1436058_at (Group G1, Modules 20)",sample x3,2.39
same,"Shisa5 1423986_a_at (Group G1, Modules 20)",sample x3,1.57
same,"Shisa5 1437503_a_at (Group G1, Modules 20)",sample x3,1.32
same,"Stat1 1450033_a_at (Group G1, Modules 20)",sample x3,2.11
same,"Stat1 1450034_at (Group G1, Modules 20)",sample x3,2.07
same,"Tdrd7 1426716_at (Group G1, Modules 20)",sample x3,2.22
same,"Tor1aip2 1418115_s_at (Group G1, Modules 20)",sample x3,2.42
same,"Tor1aip2 1418116_at (Group G1, Modules 20)",sample x3,2.19
same,"Tor1aip2 1435526_at (Group G1, Modules 20)",sample x3,1.54
same,"Trim12a 1437432_a_at (Group G1, Modules 20)",sample x3,1.46
same,"Uba7 1426970_a_at (Group G1, Modules 20)",sample x3,1.41
same,interferon induction relative to adjuvants targeting the same receptor,"LN, z-scores and 40 module mapping",strongest interferon inducer; also recorded: induced more interferon responses in vivo than the other sting ligands
same,"preference, 1417252_at Ptgs2","among cdiGMP/cGAMP/DMXAA, LN",cdiGMP
same,"preference, 1417263_at Ptgs2","among cdiGMP/cGAMP/DMXAA, LN",cdiGMP
same,"preference, 1418424_at Tnfaip6","among cdiGMP/cGAMP/DMXAA, LN",cdiGMP
same,"preference, 1419132_at Tfr2","among cdiGMP/cGAMP/DMXAA, LN",cdiGMP
same,"preference, 1419508_at Ripk1","among cdiGMP/cGAMP/DMXAA, LN",cdiGMP
same,"preference, 1419534_at Olr1","among cdiGMP/cGAMP/DMXAA, LN",cdiGMP
same,"preference, 1419721_at Niacr1","among cdiGMP/cGAMP/DMXAA, LN",cdiGMP
same,"preference, 1421457_a_at Samsn1","among cdiGMP/cGAMP/DMXAA, LN",cdiGMP
same,"preference, 1421473_at Il1a","among cdiGMP/cGAMP/DMXAA, LN",cdiGMP
same,"preference, 1421578_at Ccl4","among cdiGMP/cGAMP/DMXAA, LN",cdiGMP
same,"preference, 1421679_a_at Cdkn1a","among cdiGMP/cGAMP/DMXAA, LN",cdiGMP
same,"preference, 1422054_a_at 5kil","among cdiGMP/cGAMP/DMXAA, LN",cdiGMP
same,"preference, 1422305_at Ifnb1","among cdiGMP/cGAMP/DMXAA, LN",cdiGMP
same,"preference, 1423028_at Ifna2","among cdiGMP/cGAMP/DMXAA, LN",cdiGMP
same,"preference, 1424638_at Cdkn1a","among cdiGMP/cGAMP/DMXAA, LN",cdiGMP
same,"preference, 1425687_at Cflar","among cdiGMP/cGAMP/DMXAA, LN",cdiGMP
same,"preference, 1425837_a_at Ccrn4l","among cdiGMP/cGAMP/DMXAA, LN",cdiGMP
same,"preference, 1427736_a_at Ccrl2","among cdiGMP/cGAMP/DMXAA, LN",cdiGMP
same,"preference, 1428027_at LOC100653389","among cdiGMP/cGAMP/DMXAA, LN",cdiGMP
same,"preference, 1428735_at Cd69","among cdiGMP/cGAMP/DMXAA, LN",cdiGMP
same,"preference, 1433508_at Klf6","among cdiGMP/cGAMP/DMXAA, LN",cdiGMP
same,"preference, 1434350_at Csrnp1","among cdiGMP/cGAMP/DMXAA, LN",cdiGMP
same,"preference, 1436387_at C330006P03Rik///Homer1","among cdiGMP/cGAMP/DMXAA, LN",cdiGMP
same,"preference, 1439349_at Sbno2","among cdiGMP/cGAMP/DMXAA, LN",cdiGMP
same,"preference, 1439680_at Tnfsf10","among cdiGMP/cGAMP/DMXAA, LN",cdiGMP
same,"preference, 1439981_at Tespa1","among cdiGMP/cGAMP/DMXAA, LN",cdiGMP
same,"preference, 1441843_s_at 5230400M03Rik","among cdiGMP/cGAMP/DMXAA, LN",cdiGMP
same,"preference, 1442556_at ---","among cdiGMP/cGAMP/DMXAA, LN",cdiGMP
same,"preference, 1443414_at C78513","among cdiGMP/cGAMP/DMXAA, LN",cdiGMP
same,"preference, 1444010_at Eif4e","among cdiGMP/cGAMP/DMXAA, LN",cdiGMP
same,"preference, 1444598_at ---","among cdiGMP/cGAMP/DMXAA, LN",cdiGMP
same,"preference, 1445534_at ---","among cdiGMP/cGAMP/DMXAA, LN",cdiGMP
same,"preference, 1446245_at ---","among cdiGMP/cGAMP/DMXAA, LN",cdiGMP
same,"preference, 1448325_at Ppp1r15a","among cdiGMP/cGAMP/DMXAA, LN",cdiGMP
same,"preference, 1448724_at Cish","among cdiGMP/cGAMP/DMXAA, LN",cdiGMP
same,"preference, 1449169_at Has2","among cdiGMP/cGAMP/DMXAA, LN",cdiGMP
same,"preference, 1449311_at Bach1","among cdiGMP/cGAMP/DMXAA, LN",cdiGMP
same,"preference, 1450297_at Il6","among cdiGMP/cGAMP/DMXAA, LN",cdiGMP
same,"preference, 1451340_at Arid5a","among cdiGMP/cGAMP/DMXAA, LN",cdiGMP
same,"preference, 1453636_at Pcgf5","among cdiGMP/cGAMP/DMXAA, LN",cdiGMP
same,"preference, 1453851_a_at Gadd45g","among cdiGMP/cGAMP/DMXAA, LN",cdiGMP
same,"preference, 1455197_at Rnd1","among cdiGMP/cGAMP/DMXAA, LN",cdiGMP
same,"preference, 1455899_x_at Socs3","among cdiGMP/cGAMP/DMXAA, LN",cdiGMP
same,"preference, 1457404_at Nfkbiz","among cdiGMP/cGAMP/DMXAA, LN",cdiGMP
same,"preference, 1457888_at ---","among cdiGMP/cGAMP/DMXAA, LN",cdiGMP
same,"preference, 1457944_at ---","among cdiGMP/cGAMP/DMXAA, LN",cdiGMP
same,"preference, 1458376_at B930025B16Rik","among cdiGMP/cGAMP/DMXAA, LN",cdiGMP
same,"preference, 1458589_at ---","among cdiGMP/cGAMP/DMXAA, LN",cdiGMP
same,"preference, 1459144_at ---","among cdiGMP/cGAMP/DMXAA, LN",cdiGMP
same,adjuvant group-associated biological features,"z-score selected genes, TargetMine and IPA upstream cytokine analyses",strongly associated with type I and type II interferon responses
